From patent US9440980B2, “Remedy for diabetes” (EA Pharma Co., Ltd., priority 2007, dated 2016)

Assays:
isolated adipocytes = test: Measurement of glucose uptake activity in isolated rat adipocytes (2-[14C]-deoxy-D-glucose); type: cell-based; conditions: Adipocyte, glucose uptake of insulin (100 nM) = 100%
Procedure: A male Wistar rat was decapitated and exsanguinated, and then a paratesticular adipose tissue was resected therefrom after laparotomy. The tissue was cut in a KRH (Krebs-Ringer HEPES: 130 mM NaCl, 4.7 mM KCl, 1.2 mM KH2PO4, 1.2 mM MgSO4, 1 mM CaCl2, 25 mM HEPES) containing a BSA (bovine serum albumin), a collagenase (type I) was added thereto, and the resultant was subjected to a digestive treatment for about 40 minutes to obtain isolated adipocytes. The buffer was replaced to remove the collagenase, and a 2% BSA/KRH solution was added thereto, whereby the adipocytes were floated again to obtain a adipocytes suspension.
The glucose uptake activity of a test substance compound was evaluated in accordance with Non-Patent Document 14: Simpson et al., Annual Review of Biochemistry, 55, 1059, (1986). Thus, 200 μl of the adipocytes suspension was dispensed into each polystyrene test tube, 100 μl of a solution containing the test substance compound was added thereto, and the test tube was shaken and incubated at 37° C. for 30 minutes. The glucose uptake activity was evaluated by measuring the amount of 2-[^14C(U)]-deoxy-D-glucose uptaken per unit time. Thus, the 2-[^14C(U)]-deoxy-D-glucose was added to the preincubated adipocytes suspension at the final concentration of 0.5 μCi/sample, and after 5 minutes, cytochalasin B was added thereto at the final concentration of 10 μM to stop the glucose uptake. Dinonyl phthalate was superposed over the solution, the resultant was centrifuged to separate the fat cells from the buffer, and the amount of the 2-[^14C(U)]-deoxy-D-glucose contained in the fat cell layer was measured by a liquid scintillation counter, whereby the uptaken glucose amount was determined. The glucose uptake of insulin (100 nM) was evaluated in the same manner and considered to be 100%, and thus the EC50 value of each compound was obtained.

[1] = tested on: PI3-kinase β (p110β/p85α); test: PI3-kinase subtype activity with or without Gβ1γ2-Myc (PIP3 production, 32P-ATP, TLC); type: biochemical
Procedure: The subtypes α (PI3 Kinase (p110α/p85α), active, Upstate, Product No. 14-602), β (PI3 Kinase (p110β/p85α), active, Upstate, Product No. 14-603), γ ((PI3KγHis-GST (Phosphoinositide 3-kinase p110γHis/p101GST) human, Recombinant, Sf9 insect cell, JENA Bioscience, Product No. PR-347S), and δ (PI3 Kinase (p110δ/p85α), active, Upstate, Product No. 14-604) were used as the PI3-kinase subtypes respectively. A PI3K buffer (40 mM HEPES-Na (pH 7.4), 120 mM NaCl, 1 mM EGTA, 1 mM dithiothreitol, 1 mM β glycerophosphoric acid, 10 mM MgCl2, 0.1% BSA) was used as a buffer in the following reactions.
To the lipid micelle solution (125 μl) was added the purified Gβ1γ2-Myc solution (250 μl, 10 μg/ml) obtained in (1), and the resultant solution was stirred and left in ice for 10 minutes. 30 μl of the lipid micelle solution containing the Gβγ2-Myc was dispensed into 1.5-ml microtubes, and to these were added 5 μl of a compound solution and 5 μl of each PI3-kinase subtype (α, β, and δ: 5 μg/ml, γ: 2.5 μg/ml) successively. The mixture was left at room temperature for 10 minutes, and a 40-μM ATP solution (10 μl) containing ^32P-γ-ATP was added thereto, to initiate a reaction. The amount of the ^32P-γ-ATP added was about 300 kBq per one reaction. The reaction was carried out at room temperature for 30 minutes, and stopped by adding 80 μl of 1N HCl at ice temperature. 300 μl of a chloroform:methanol (1:1) solution was added thereto, the mixture was stirred to extract the lipid, and the organic layer was washed with 80 μl of 1N HCl twice. The solvent was removed from the residual organic layer under reduced pressure, the residue was dissolved in 20 μl of a chloroform:methanol (4:1) solution, the entire solution was spotted on a TLC plate (Merck, Kieselgel 60), and a TLC was carried out for about 4 hours using a developer of acetic acid:water:1-propanol (4:31:65). The TLC plate was treated with oxalic acid beforehand such that the plate was sufficiently developed by a 40% methanol solution containing 1% of potassium oxalate, dried overnight, and activated at 110° C. for 30 minutes. After the developing, the TLC plate was sufficiently dried and exposed using an imaging plate, and data were obtained by BAS2000 (FUJIFILM Corporation). The data were analyzed by a software of BAS2000, the analysis region was controlled such that spots of phosphatidylinositol-[3,4,5]-trisphosphate (PIP3) in the TLC lanes have the same areas, and the energy (PSL) corresponding to each radioactivity was quantified in the region.
A lipid micelle solution was prepared in the same manner as (2). […] The reaction was carried out at room temperature for 15 minutes, the resultant was treated in the same manner as (2), and the amount of the produced PIP3 was measured.

[2] = molecular target: T1, binding between the Gβ and the p110β (PI3-kinase β) (Homo sapiens, UniProt P42338+P62873); test: Binding of Gβ1γ2-Myc to PI3-kinase β (immunoprecipitation, Western blot); conditions: Compound 1 (0.1 μM) and Compound 6 (1 mM) approximately the same effect; FIG. 15
T1 construct: purchased Upstate 14-603
Procedure: 300 μl of a PI3K buffer (40 mM HEPES-Na (pH 7.4), 120 mM NaCl, 1 mM EGTA, 1 mM dithiothreitol, 1 mM β glycerophosphoric acid, 10 mM MgCl2, 0.1% BSA) was added to a 1.5-ml microtube, and to this were added 200 ng of the Gβ1γ2-Myc obtained in Example 20 (1), 160 ng of PI3-kinase β (PI3 Kinase (p110β/p85α), active, Upstate, Product No. 14-603), and a test substance. The mixture was left at room temperature for 30 minutes, to this was added 10 μl of a solution of an anti-cMyc antibody (9E10, 200 μg/ml, SantaCruz, Product No. sc-40), and the resulting mixture was left at room temperature for 2 hours. To the solution was added 25 μl of anti-mouse IgG agarose beads (American Qualex, Product No. 61060) which were washed with the same buffer, stirred at room temperature for 1 hour and centrifuged (10000 rpm, 1 minute) to remove the supernatant. Furthermore, the beads were washed with 0.5 ml of the buffer 3 times, eluted in a boiling SDS-containing buffer, and subjected to an SDS polyacrylamide electrophoresis. Then, the amounts of the p110β and the Gβ adsorbed to the beads were measured by a Western blot method using an anti-p110β antibody (SantaCruz, Product No. sc-602) and an anti-Gβ antibody (SantaCruz, Product No. sc-261).

[3] = molecular target: T2, PI3-kinase β in the presence of Gβ1γ2-His (Homo sapiens, UniProt P42338+P62873); test: PI3-kinase β activation assay in the presence of Gβ1γ2-His (scintillation counting); type: biochemical; conditions: FIG. 17
T2 construct: purchased Upstate 14-603
Procedure: A lipid micelle solution was prepared in accordance with a method described in Example 24 (2), to this was added the Gβ1γ2-His prepared in (1) at a concentration of 13.3 μg/ml, and the mixture was left on ice for 10 minutes. To 30 μl of the resultant solution were added 5 μl of a solution containing Compound 1 or 6 and 5 μl of a PI3-kinase β solution (5 μg/ml) successively. A 40 μM ATP solution (10 μl) containing ^32P-γ-ATP was added thereto, and a reaction was carried out at room temperature for 2 hours. The reaction was stopped by addition of 80 μl of 1N HCl, and the lipid was extracted with 300 μl of chloroform:methanol (1:1). The organic layer was washed with 80 μl of 1N HCl twice, 10 ml of a liquid scintillator (Hionic Fluor) was added thereto, and the […] was measured by a liquid scintillation counter.

T1 sequence (P42338 whole entry): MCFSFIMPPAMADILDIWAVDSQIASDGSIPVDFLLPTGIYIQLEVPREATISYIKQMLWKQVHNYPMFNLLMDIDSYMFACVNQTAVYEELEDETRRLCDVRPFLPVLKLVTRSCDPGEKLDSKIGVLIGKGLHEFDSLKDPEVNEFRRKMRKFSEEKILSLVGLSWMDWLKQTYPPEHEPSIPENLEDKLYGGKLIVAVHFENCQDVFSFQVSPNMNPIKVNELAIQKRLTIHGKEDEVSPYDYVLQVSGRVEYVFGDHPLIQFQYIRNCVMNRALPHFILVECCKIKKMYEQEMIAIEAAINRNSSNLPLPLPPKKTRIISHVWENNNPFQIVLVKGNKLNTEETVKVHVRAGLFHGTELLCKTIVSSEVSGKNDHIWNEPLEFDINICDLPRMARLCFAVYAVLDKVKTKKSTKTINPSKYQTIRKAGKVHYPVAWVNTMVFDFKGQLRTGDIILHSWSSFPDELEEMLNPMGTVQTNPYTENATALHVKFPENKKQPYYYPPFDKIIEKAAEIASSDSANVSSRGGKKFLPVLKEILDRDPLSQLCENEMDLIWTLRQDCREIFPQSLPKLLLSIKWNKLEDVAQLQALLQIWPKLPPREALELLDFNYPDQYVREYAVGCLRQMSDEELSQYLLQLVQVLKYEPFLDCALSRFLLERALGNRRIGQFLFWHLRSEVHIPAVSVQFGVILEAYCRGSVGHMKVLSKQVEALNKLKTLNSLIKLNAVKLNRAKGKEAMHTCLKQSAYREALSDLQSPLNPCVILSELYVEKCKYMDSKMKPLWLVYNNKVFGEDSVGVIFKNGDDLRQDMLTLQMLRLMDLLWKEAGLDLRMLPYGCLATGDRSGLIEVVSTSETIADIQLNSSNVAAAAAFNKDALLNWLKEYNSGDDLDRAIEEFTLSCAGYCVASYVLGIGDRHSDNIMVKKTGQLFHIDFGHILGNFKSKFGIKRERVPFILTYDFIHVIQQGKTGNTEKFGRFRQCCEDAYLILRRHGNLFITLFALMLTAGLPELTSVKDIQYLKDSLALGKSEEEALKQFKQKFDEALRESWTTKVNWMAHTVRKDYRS
T1 sequence (P27986 whole entry partner): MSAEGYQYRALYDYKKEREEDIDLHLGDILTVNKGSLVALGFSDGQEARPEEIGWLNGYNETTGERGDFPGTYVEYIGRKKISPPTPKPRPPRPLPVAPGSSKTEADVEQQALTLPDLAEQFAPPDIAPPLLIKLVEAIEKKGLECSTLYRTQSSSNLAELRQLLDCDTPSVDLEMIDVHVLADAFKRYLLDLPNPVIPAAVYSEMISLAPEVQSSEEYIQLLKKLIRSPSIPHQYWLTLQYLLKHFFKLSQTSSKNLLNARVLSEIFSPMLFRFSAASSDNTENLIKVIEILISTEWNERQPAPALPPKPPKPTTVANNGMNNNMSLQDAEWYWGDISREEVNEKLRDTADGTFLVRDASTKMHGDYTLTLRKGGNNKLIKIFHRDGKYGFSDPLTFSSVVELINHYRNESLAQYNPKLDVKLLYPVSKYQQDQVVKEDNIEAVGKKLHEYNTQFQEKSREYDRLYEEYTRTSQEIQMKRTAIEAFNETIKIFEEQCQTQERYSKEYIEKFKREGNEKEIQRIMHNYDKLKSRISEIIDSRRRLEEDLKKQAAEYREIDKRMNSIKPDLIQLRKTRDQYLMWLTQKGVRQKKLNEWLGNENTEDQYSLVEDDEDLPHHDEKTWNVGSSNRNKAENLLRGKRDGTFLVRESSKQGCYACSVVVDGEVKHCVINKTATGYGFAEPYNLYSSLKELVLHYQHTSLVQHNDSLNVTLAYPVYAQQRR
T1 sequence (P62873 whole entry): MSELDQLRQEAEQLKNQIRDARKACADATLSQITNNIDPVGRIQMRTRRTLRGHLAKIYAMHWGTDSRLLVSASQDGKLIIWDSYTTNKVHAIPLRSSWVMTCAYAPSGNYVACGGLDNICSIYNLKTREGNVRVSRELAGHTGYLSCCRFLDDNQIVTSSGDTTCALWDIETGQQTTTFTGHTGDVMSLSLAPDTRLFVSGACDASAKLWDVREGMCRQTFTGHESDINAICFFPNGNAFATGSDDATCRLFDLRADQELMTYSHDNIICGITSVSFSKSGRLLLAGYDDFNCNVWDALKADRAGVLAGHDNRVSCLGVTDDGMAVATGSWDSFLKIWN
T1 sequence (P59768 with tags, fused parts or gaps partner limits assumed): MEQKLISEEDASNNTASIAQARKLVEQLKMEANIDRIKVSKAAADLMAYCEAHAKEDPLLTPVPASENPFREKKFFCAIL
T2 sequence (P42338 whole entry): as the sequence (P42338 whole entry) above
T2 sequence (P27986 whole entry partner): as the sequence (P27986 whole entry partner) above
T2 sequence (P62873 whole entry): as the sequence (P62873 whole entry) above
T2 sequence (P59768 with tags, fused parts or gaps partner limits assumed): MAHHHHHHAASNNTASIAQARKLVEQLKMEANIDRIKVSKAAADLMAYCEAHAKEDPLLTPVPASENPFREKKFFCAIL

SMILES	EC50 (isolated adipocytes) [nM]	effect on PI3-kinase β activity ([1]; 30 μM, presence of Gβ1γ2-Myc, FIG. 13)	effect on PI3-kinase β activity ([1]; absence of the Gβ (Gβ1γ2-Myc), FIG. 14)	effect of enhancing the enzymatic activity of the PI3-kinase β ([1]; presence of Gβ1γ2-Myc, concentration-dependent, 0.1, 1, and 10 μM, FIG. 14)	effect on the binding between the Gβ and the p110β (PI3-kinase β) [2]	PI3-kinase activity compared with the case without compound ([3]; 0.1 μM, 10 μM)	effect of enhancing the enzymatic activity of the PI3-kinase β ([1]; presence of Gβ1γ2-Myc, concentration-dependent, 100 μM and 1 mM, FIG. 14)	PI3-kinase activity compared with the case without compound ([3]; 100 μM)
O=C1NCC2=C1[C@@H](c1cccc3ccsc13)N(C(=O)CCc1ccccn1)[C@@H]1CCCC[C@H]1N2 [Compound 1]	8	significant activating effect only on the PI3-kinase β	no effects	significant effect of enhancing the enzymatic activity	enhanced	clearly increased	–	–
O=C1NCC2=C1[C@@H](c1ccccc1)N(C(=O)CO)[C@@H]1CCCC[C@H]1N2 [Compound 6]	4000	–	–	–	enhanced	–	significant effect of enhancing the enzymatic activity	clearly increased
